In patent publication US11638428B2, “Nematocidal heterocyclic amides” (CORTEVA AGRISCIENCE LLC, priority 2015, dated 2023) one finds phytotoxicity data, which are given here for 61 compounds.

In the data set the test system is cucumber seedlings. In words: Test A: phytotoxicity to the cucumber seedlings of the test units. To be noted: 500 ppm active ingredient applied to soil. Type of data set: in vivo. As for the experimental part:
Control of the southern root-knot nematode (Meloidogyne incognita) through contact and/or systemic means was evaluated in test units consisting of small open containers filled with a sandy soil mixture and cucumber seedlings. Test compounds were formulated using a solution containing 50% acetone and 50% water. […] Each test was replicated 3 times. After treatment, the test units were allowed to dry for 1 hour, after which time about 400 second-stage juvenile (J2) larvae and 800 eggs were pipetted into the soil. The test units were held at 27° C. and watered as needed for 7 days. Nematocidal efficacy was determined by the amount of root gall formation observed when compared to an untreated control. No gall formation was indicative of 100% nematode control. […] No nematode control rating was given to compounds showing significant phytotoxicity.
For `Cc1occc1C(=O)NC(C1CC1)C1CC1` [Compound 46], the phytotoxicity result is reported as “no significant phytotoxicity”.
As for `CC[C@H](C)NC(=O)c1ccoc1Cl` [Compound 77], the phytotoxicity entry is “no significant phytotoxicity”.
Next, `CCC(C)C(C)NC(=O)c1ccoc1C` (stereo not shown) [Compound 1]: “no significant phytotoxicity”.
As for `CCCC(C)NC(=O)c1ccoc1Cl` (stereo not shown) [Compound 17], the phytotoxicity result is listed as “no significant phytotoxicity”.
As to `Cc1ncc(C(=O)NC(C)C2CC2)s1` (stereo not shown) [Compound 60], the phytotoxicity result is listed as “no significant phytotoxicity”.
For the compound `C[C@@H](NC(=O)c1ccoc1Br)C1CC1` [Compound 74], the phytotoxicity result is recorded as “no significant phytotoxicity”.
As to `Cc1occc1C(=O)N[C@H](C)C(C)C` [Compound 96], the phytotoxicity result is reported as “no significant phytotoxicity”.
As for `CC(C)(C)CC(C)(C)NC(=O)c1ccoc1Cl` [Compound 18], the phytotoxicity entry is given as “no significant phytotoxicity”.
For `CC(C)(NC(=O)c1ccoc1Cl)C1CC1` [Compound 8], the phytotoxicity entry is given as “no significant phytotoxicity”.
Take `Cc1occc1C(=O)N[C@H](C)C(C)(C)C` [Compound 39]: the phytotoxicity entry is reported as “no significant phytotoxicity”.
Turning to `C[C@H](NC(=O)c1ccoc1Cl)C(C)(C)C` [Compound 40, 2-chloro-N-[(1S)-1,2,2-trimethylpropyl]-3-furancarboxamide], the phytotoxicity result is “no significant phytotoxicity”.
Next, `Cc1occc1C(=O)NC(C)C` [Compound 3]: “no significant phytotoxicity”; `Cc1occc1C(=O)NC(C)CC(C)(C)C` (stereo not shown) [Compound 80]: “no significant phytotoxicity”; `CC(NC(=O)c1ccoc1Cl)C(F)(F)F` (stereo not shown) [Compound 24]: “no significant phytotoxicity”.
Next, `CC(NC(=O)c1ccoc1Br)C(C)(C)C` (stereo not shown) [Compound 35]: “no significant phytotoxicity”; `CC(NC(=O)c1ncsc1I)C1CC1` (stereo not shown) [Compound 56]: “no significant phytotoxicity”.
As to `CCCC(C)NC(=O)c1ccoc1Br` (stereo not shown) [Compound 34], the phytotoxicity result is listed as “no significant phytotoxicity”.
For `Cc1occc1C(=O)N[C@H](C)C1CC1` [Compound 36], the phytotoxicity result is “no significant phytotoxicity”.
Turning to `CC(NC(=O)c1ncsc1Br)C1CC1` (stereo not shown) [Compound 63], the phytotoxicity entry is “no significant phytotoxicity”.
As for `CC(NC(=O)c1sccc1Br)C1CC1` (stereo not shown) [Compound 50], the phytotoxicity entry is reported as “no significant phytotoxicity”.
Consider `CC(NC(=O)c1ccoc1Cl)C1(C)CC1` (stereo not shown) [Compound 22], for which the phytotoxicity entry is recorded as “no significant phytotoxicity”.
For `CC(C)C(C)NC(=O)c1ccoc1Cl` (stereo not shown) [Compound 26], the phytotoxicity result is reported as “no significant phytotoxicity”.
As to `CCC(NC(=O)c1ccoc1Cl)C1CC1` (stereo not shown) [Compound 53], the phytotoxicity result is on record as “no significant phytotoxicity”.
On to `CSc1ccsc1C(=O)NC(C)C1CC1` (stereo not shown) [Compound 58], for which the phytotoxicity result is reported as “no significant phytotoxicity”.
As for `C[C@H](NC(=O)c1ccoc1Br)C(C)(C)C` [Compound 42], the phytotoxicity entry is on record as “no significant phytotoxicity”.
Then `CSCC(C)(C)NC(=O)c1ccoc1Cl` [Compound 14], with “no significant phytotoxicity”; and `COCC(C)(C)NC(=O)c1ccoc1Cl` [Compound 12], with “no significant phytotoxicity”; and `CC(NC(=O)c1ccoc1Cl)C1CC1` (racemic) [Compound 11], with “no significant phytotoxicity”.
`Cc1occc1C(=O)N[C@@H](C)C(C)C` [Compound 101]: the phytotoxicity result is given as “no significant phytotoxicity”.
Next, `CC(NC(=O)c1sccc1C(C)(C)C)C(C)(C)C` (single isomer, unassigned) [Compound 92]: “no significant phytotoxicity”.
Turning to `CC(NC(=O)c1sccc1C#N)C(C)(C)C` (stereo not shown) [Compound 95], the phytotoxicity result is recorded as “no significant phytotoxicity”.
For the compound `CC(NC(=O)c1ccoc1Cl)C1CCC1` (stereo not shown) [Compound 23], the phytotoxicity entry was “no significant phytotoxicity”.
Turning to `CC(C)C(C)NC(=O)c1sccc1C(C)(C)C` (stereo not shown) [Compound 89], the phytotoxicity entry was “no significant phytotoxicity”.
Next, `CC(C)CCCC(C)NC(=O)c1ccoc1Cl` (stereo not shown) [Compound 30]: “no significant phytotoxicity”; `Cc1occc1C(=O)NC(C)C(C)C` (stereo not shown) [Compound 4]: “no significant phytotoxicity”; `CCCCCC(C)NC(=O)c1ccoc1Cl` (stereo not shown) [Compound 29]: “no significant phytotoxicity”.
For `CC(C)[C@@H](C)NC(=O)c1ccoc1Cl` [Compound 75], the phytotoxicity entry was “no significant phytotoxicity”.
As for `Cc1occc1C(=O)NC(C)C1CC1` (stereo not shown) [Compound 6], the phytotoxicity entry is reported as “no significant phytotoxicity”.
In the case of `Cc1ccsc1C(=O)NC(C1CC1)C1CC1` [Compound 52], the phytotoxicity result is on record as “no significant phytotoxicity”.
Regarding `CC(C)[C@H](C)NC(=O)c1ccoc1Cl` [Compound 43], the phytotoxicity entry is “no significant phytotoxicity”.
On to `CCCC(C)NC(=O)c1ccoc1C` (stereo not shown) [Compound 5], for which the phytotoxicity result is recorded as “no significant phytotoxicity”.
Regarding `Cc1occc1C(=O)N[C@@H](C)C1CC1` [Compound 37], the phytotoxicity result is recorded as “no significant phytotoxicity”.
As for `CC(NC(=O)c1sccc1C(C)(C)C)C(C)(C)C` (stereo not shown) [Compound 90], the phytotoxicity entry was “no significant phytotoxicity”.
With `CC(NC(=O)c1ccoc1Br)C1CC1` (stereo not shown) [Compound 32], the phytotoxicity entry was “no significant phytotoxicity”.
Next, `Cc1occc1C(=O)NC(C)(C)C1CC1` [Compound 7]: “no significant phytotoxicity”.
`Cc1ccsc1C(=O)NC(C)C(C)C` (stereo not shown) [Compound 48]: the phytotoxicity result is given as “no significant phytotoxicity”.
Next, `CC(NC(=O)c1ncsc1Cl)C1CC1` (stereo not shown) [Compound 62]: “no significant phytotoxicity”; `CCC(NC(=O)c1ccoc1C)C1CC1` (stereo not shown) [Compound 67]: “no significant phytotoxicity”.
On to `CC(C)C(C)NC(=O)c1ccoc1Br` (stereo not shown) [Compound 33], for which the phytotoxicity result is given as “no significant phytotoxicity”.
Take `CC(C)CC(C)NC(=O)c1ccoc1Cl` (stereo not shown) [Compound 19]: the phytotoxicity entry was “no significant phytotoxicity”.
Next, `CC(C)C(C)(C)NC(=O)c1ccoc1Cl` [Compound 10]: “no significant phytotoxicity”.
With `CC(NC(=O)c1ncsc1C(F)(F)F)C1CC1` (stereo not shown) [Compound 72], the phytotoxicity entry is “no significant phytotoxicity”.
As to `CC(NC(=O)c1ccoc1Cl)C1CCCCC1` (stereo not shown) [Compound 21], the phytotoxicity result was “no significant phytotoxicity”.
With `Cc1occc1C(=O)N(C)C(C)C1CC1` (stereo not shown) [Compound 2], the phytotoxicity result was “no significant phytotoxicity”.
In the case of `Cc1occc1C(=O)NC1(C2CC2)CC1` [Compound 47], the phytotoxicity entry is “no significant phytotoxicity”.
Consider `CC(NC(=O)c1sccc1C(F)(F)F)C1CC1` (stereo not shown) [Compound 65], for which the phytotoxicity result is “no significant phytotoxicity”.
For `CC(NC(=O)c1ccoc1Cl)C(C)(C)C` (stereo not shown) [Compound 27, 2-chloro-N-(1,2,2-trimethylpropyl)-3-furancarboxamide], the phytotoxicity result is given as “no significant phytotoxicity”.
Take `CC(NC(=O)c1ccoc1Cl)C1CCCC1` (stereo not shown) [Compound 20]: the phytotoxicity result is “no significant phytotoxicity”.
Regarding `CCC(C)NC(=O)c1ccoc1Cl` (stereo not shown) [Compound 16], the phytotoxicity entry is listed as “no significant phytotoxicity”.
On to `C[C@@H](NC(=O)c1ccoc1Cl)C1CC1` [Compound 45, 2-chloro-N-[(1R)-1-cyclopropylethyl]-3-furancarboxamide], for which the phytotoxicity result is listed as “no significant phytotoxicity”.
As for `Cc1ncsc1C(=O)NC(C)C1CC1` (stereo not shown) [Compound 70], the phytotoxicity entry is recorded as “no significant phytotoxicity”.
